This is an account of results in patent US12617781B2, “Utidelone semi-hydrated single crystal and preparation method therefor and use thereof” (Beijing Biostar Pharmaceuticals Co., Ltd., priority 2020, dated 2026).

Read-outs that look alike come from different tables or passages of the source.

Data set [1] in a line: Stability under high humidity. It is filed as physicochemical. The source says:
The semihydrate crystal obtained in Example 1 was placed under the condition of relative humidity of 90%±5% for 10 days, and samples were taken on the 5th and 10th days.
Utidelone anhydrous crystal was placed under the condition of relative humidity of 90±5% for 10 days. Samples were taken on the 5th and 10th days. The moisture content increased and the moisture absorption was obvious.

The nature of data set [2]: PK study on intravenous administration of the pharmaceutical composition containing Utidelone semihydrate crystal. As to conditions: for MRT / AUC(0-t) / half-life: human, in vivo, iv, 40 mg/m2, intravenous infusion 40 mg/m2 once a day for 5 days; for AUC(0-t): read-out: AUC(0-24); for half-life: read-out: elimination half-life t½ in plasma (converted); for apparent volume of distribution / plasma clearance CL: intravenous infusion 40 mg/m2 once a day for 5 days. Format: in vivo. How it is done: Utidelone injection was prepared with Utidelone crystals (crystal A or mixed crystals containing crystal A) and 50% v/v absolute ethanol (USP), 30% v/v propylene glycol (USP) and 20% v/v polyoxyl castor oil 1 (Cremophor EL or ELP) as a solubilizer. The injection has low water content and high stability.

Data set [3] in a line: Stability test of the semihydrate crystal under storage conditions (temperature). It is filed as physicochemical. How it is done: Stability test: The stability test of the semihydrate crystal was carried out under the following conditions:
Storage condition 1: 2-25° C., stored in a sealed state for more than 3 years, confirmed by NMR, HPLC, X-ray powder diffraction and infrared spectrum analysis, etc., the semihydrate crystal was stable (no changes in content, no impurities due to degradation, no changes in appearance and physicochemical properties).
Storage Condition 2: 25° C., 60%±10% RH, unsealed storage for more than 3 days, after the sample was continued to be stored at 25° C. for 1 year, it was confirmed by NMR, HPLC, X-ray powder diffraction and infrared spectrum analysis, etc., the semihydrate crystal was stable (no changes in content, no impurities due to degradation, no changes in appearance and physicochemical properties).
Storage condition 3: Stored in a sealed state at 40° C. for more than 2 years. It was confirmed by NMR, HPLC, X-ray powder diffraction and infrared spectrum analysis, etc., the semihydrate crystal was stable (no changes in content, no impurities due to degradation, no changes in appearance and physicochemical properties).
Storage Condition 4: Stored at 60° C. for more than 1 year. It was confirmed by NMR, HPLC, X-ray powder diffraction and infrared spectrum analysis, etc., the semihydrate crystal was stable (no changes in content, no impurities due to degradation, no changes in appearance and physicochemical properties).

A short description of data set [4]: Stability under strong light (light box). As to conditions: 4500 lx±500 lx, 10 days. Format: physicochemical. The source says: The semihydrate crystal obtained in Example 1 was placed in a light box, and placed for 10 days under the condition that the light intensity was 4500 lx±500 lx.
A further data set is described as follows: Solubility test. It is filed as physicochemical. As to conditions: thermodynamic from solid.
Data set [5] can be described thus: Stability in 0.1N hydrochloric acid solution. It is filed as physicochemical. How it is done: The semihydrate crystal obtained in Example 1 was placed in a 0.1N hydrochloric acid solution, and the crystal was stable: no obvious degradation impurities were produced. Solubility >5 mg/ml.
The mark [6] stands for this setting: relative humidity 90%±5%, 10 days, samples on 5th and 10th days.
Setting [7] is: high humidity conditions (summary statement).

Turning to `C/C1=C/C[C@@H](/C(C)=C/c2csc(C)n2)OC(=O)C[C@H](O)C(C)(C)C(=O)[C@H](C)[C@@H](O)[C@@H](C)CCC1` [Utidelone anhydrous crystal], the Moisture content entry in data set [1] (setting [6]) was “increased”. Besides, the Moisture absorption entry in data set [1] (relative humidity 90±5%, 10 days, samples on 5th and 10th days) is listed as “obvious”.

Turning to `C/C1=C/C[C@@H](/C(C)=C/c2csc(C)n2)OC(=O)C[C@H](O)C(C)(C)C(=O)[C@H](C)[C@@H](O)[C@@H](C)CCC1` [Utidelone], the “Accumulation in the body after continuous administration” value in data set [2] (40 mg/m2 once a day for 5 days, first vs last administration) is “did not accumulate”. Besides, in data set [2] (1st day), the MRT is 4.5 ± 0.8 h, the AUC(0-t) stood at 4180 ± 1010 ng·h/mL, the half-life is 8.6 ± 0.1 h and the “apparent volume of distribution” value is 114.0±35.2 L/m2. Further, in data set [2] (1st day), the “plasma clearance CL” value amounted to 9.2±2.7 L/h/m2. In data set [2] (5th day), the MRT was determined as 5.1 ± 0.7 h, the AUC(0-t) came out at 4550 ± 1630 ng·h/mL, the half-life is 8.2 ± 1.1 h and the “apparent volume of distribution” value worked out at 109.1±62.6 L/m2. Moreover, in data set [2] (5th day), the “plasma clearance CL” value was 8.9±3.9 L/h/m2.

For the compound `C/C1=C/C[C@@H](/C(C)=C/c2csc(C)n2)OC(=O)C[C@H](O)C(C)(C)C(=O)[C@H](C)[C@@H](O)[C@@H](C)CCC1` [semihydrate crystal], the “Storage time without changes in substance” value was “more than 3 years” in data set [3] (40° C.) and “more than 1 year” in data set [3] (60° C.). Besides, the “Stability (content, degradation impurities, appearance, physicochemical properties)” value in data set [3] (Storage condition 1: 2-25° C., sealed, more than 3 years, NMR, HPLC, XRPD, IR) was “stable”; in data set [3] (Storage condition 2: 25° C., 60%±10% RH, unsealed more than 3 days, then 25° C. for 1 year), “stable”; in data set [3] (Storage condition 3: sealed, 40° C., more than 2 years), “stable”; in data set [3] (Storage condition 4: 60° C., more than 1 year) it was “stable”; in data set [1] (setting [6]), “stable”; in data set [4], “stable”. For the same compound, in data set [1] (setting [7]), the Stability entry is reported as “very stable”. Further, the Water content entry in data set [1] (setting [7]) is on record as “does not change significantly”. In addition, the Moisture content result in data set [1] (setting [6]) and in data set [4] was “basically unchanged” in each case. Moreover, the solubility in “Solubility test” (0.1N hydrochloric acid solution, simulated gastric fluid) was above 5 mg/mL; in “Solubility test” (50% ethanol, 30% propylene glycol, 20% castor oil, organic solvent or mixture) it was above 100 mg/mL; in the data set “Solubility test” (DMSO, organic solvent or mixture), above 50 mg/mL; in the data set “Solubility test” (benzyl alcohol, organic solvent or mixture) it was above 50 mg/mL; in “Solubility test” (ethanol, organic solvent or mixture), above 50 mg/mL; in “Solubility test” (methanol, organic solvent or mixture), above 50 mg/mL. In addition, the solubility in “Solubility test” (propylene glycol, organic solvent or mixture) is above 50 mg/mL. Also, the “Stability (degradation impurities)” value in data set [5] is given as “stable”.
